In paper PMC6461108, “A catalytic protein–proteomimetic complex: using aromatic oligoamide foldamers as activators of RNase S” (Chemical Science, 2019):
Where “and” joins values, the source holds several entries; their conditions need not be identical. Equal values may be shown once.

How the values were obtained:
p53/hDM2 interaction = p53/hDM2 interaction (Homo sapiens, UniProt Q00987); assay: Fluorescence anisotropy competition assay against p53/hDM2; assay type: binding; conditions: FITC-p53 15-31 tracer; for IC50: 50 mM phosphate pH 7.5, 200 mM NaCl, 0.02 mg/mL BSA
Text: The calculation was run to generate 10 000 conformer sets, of which the lowest energy […]
in total) were retained for docking experiments. The lowest energy conformers belong to the same family of conformers and are well superimposed with the first lowest energy […]
protein (from 4YGW) and S-protein in complex with dApTpApApG (1RCN) using Glide XP method.11-13 All of the input ligands gave a pose in the S-protein binding groove. The […]
12, were refined using the induced fit docking against S-protein in complex with the oligonucleotide. Side chains of S-protein binding groove were automatically trimmed (based on B-factor) during docking calculation and restored for the final refinement.
The library of hybrid mimetics were docked as flexible ligands against the S-protein in complex with the oligonucleotide fragment using Glide XP (extra precision) method.11-13 […]
ligands against S-protein in complex with the oligonucleotide fragment using Glide XP method11-13 and refined using induced fit docking (Fig S7).
The fluorescein-labelled p5315-31–Flu 3,4 was purchased from peptide protein research Ltd.
Fluorescence anisotropy assays were performed in 384-well black plates (Greiner Bio-one). Each experiment was run in triplicate and fluorescence anisotropy was measured using a Perkin Elmer EnVisionTM 2103 MultiLabel plate reader. […]
For control wells in both assays, the tracer peptide was replaced with an identical volume of assay buffer. […] Plates were read after 1 h of incubation at room temperature. […]
The average anisotropy (across three experimental replicates) and the standard deviation of these values were then calculated and fit to a sigmoidal logistic model (Equation 3) using OriginPro 9.0 which provided the IC50 and error values. […]
UV absorbance analyses were recorded in a 1 mm path-length quartz cuvette on a Perkin Elmer Lambda 900 UV/VIS/NIR spectrometer.
High-resolution mass spectrometry (HRMS) data was recorded using electrospray ionization in positive mode (ESI+) with a Bruker MaXis Impact spectrometer. […]

S-protein [1] = target: T1, S-protein (Bos taurus, UniProt P61823); assay: Isothermal titration calorimetry with S-protein; assay type: binding, bovine
T1 construct: S-protein22-124; host or cells: none: purchased RNase A digested with subtilisin, S-protein purified by RP-HPLC
T1 sequence (P61823 48-150): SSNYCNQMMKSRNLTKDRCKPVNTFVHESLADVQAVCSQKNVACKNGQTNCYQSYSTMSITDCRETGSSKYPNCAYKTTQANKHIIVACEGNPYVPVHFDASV

S-protein [2] = target: T1, S-protein; assay: Native ESI-MS of S-protein complexes; assay type: binding, bovine
RNase S-protein [3] = target: T2, RNase S-protein (Bos taurus, UniProt P61823); assay: Regulation of S-protein activity by hDM2 (RNA degradation assay); conditions: hDM2 10 μM; 1a 100 μM or S-peptide 0.4 μM with S-protein
T2 sequence (P61823 47-150 limits assumed): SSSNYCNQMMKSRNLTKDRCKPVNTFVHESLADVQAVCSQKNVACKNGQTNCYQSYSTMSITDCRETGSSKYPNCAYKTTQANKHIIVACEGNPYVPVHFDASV

RNase S-protein [4] = target: T3, RNase S-protein (Bos taurus, UniProt P61823); assay: Kinetics of RNA hydrolysis by S-protein with S-peptide or mimetic; conditions: S-protein 0.05 µM, S-peptide 0.4 µM or 1a 100 µM
T3 sequence (P61823 48-150): T1 sequence (P61823 48-150)

RNase S-protein [5] = target: T3, RNase S-protein; assay: RNA degradation assay (EtBr fluorescence), reactivation of S-protein; assay type: biochemical, bovine; design: S-protein22-124; host or cells: none: purchased RNase A digested with subtilisin, S-protein purified by RP-HPLC; conditions: for % remaining fluorescence (100 µM): 100 µM compound, 0.05 µM S-protein, 45 min, 25 °C, Tris pH 6.5
[6] = S-protein titrated into mimetic, 37 °C

Compound	IC50 (p53/hDM2 interaction)	Kd (S-protein [1]) [µM]	H (kcal/mol), ITC (S-protein [1]; [6]) [kcal/mol]	S (cal/molK), ITC (S-protein [1]; [6]) [cal/molK]	n (ITC stoichiometry) (S-protein [1]; [6])	S-protein/mimetic complexes detected by native ESI-MS (S-protein [2]; 5-fold excess of mimetic (10 μM) relative to S-protein (2 μM))	ternary complex in native MS competition with increasing S-peptide (S-protein [2]; S-protein and 1a constant, increasing S-peptide)	effect of added hDM2 on RNA hydrolysis (RNase S-protein [3])	V0, average initial rate of RNA degradation (RNase S-protein [4]; CRNA 50) [g/mL/s]	V0, average initial rate of RNA degradation (RNase S-protein [4]; CRNA 75) [g/mL/s]	V0, average initial rate of RNA degradation (RNase S-protein [4]; CRNA 125) [g/mL/s]	V0, average initial rate of RNA degradation (RNase S-protein [4]; CRNA 200) [g/mL/s]	V0, average initial rate of RNA degradation (RNase S-protein [4]; CRNA 300) [g/mL/s]	V0, average initial rate of RNA degradation (RNase S-protein [4]; CRNA 425) [g/mL/s]	V0, average initial rate of RNA degradation (RNase S-protein [4]; CRNA 575) [g/mL/s]	% remaining fluorescence (100 µM) (RNase S-protein [5]) [%]	activity in RNA degradation assay at a single concentration (SAR set 1a-1d) (RNase S-protein [5]; single concentration, 20 µL of 1 mM stock in 200 µL)	competition with fluorescently labelled p53 peptide for hDM2 (p53/hDM2 interaction)
CC(C)Oc1cc(NC(=O)[C@H](Cc2ccccc2)NC(=O)c2ccc(N)c(OCc3ccc(Cl)cc3)c2)ccc1C(=O)NCC(=O)O [Compound 1a]	10.9 µM and ~10 µM	1.85 ± 0.97	-19.04 ± 1.90	-35.2	0.089 and 0.1	1 : 1 complex and a lower intensity 1 : 2 S-protein/mimetic 1a complex could be detected	no ternary complex could be detected	suppressed	0.016 ± 0.001	0.04 ± 0.004	0.088 ± 0.009	0.126 ± 0.011	0.168 ± 0.016	0.211 ± 0.032	0.254 ± 0.053	40	active	–
CC(C)Oc1cc(NC(=O)[C@H](Cc2ccccc2)NC(=O)c2ccc(N)c(OCc3ccc4ccccc4c3)c2)ccc1C(=O)NCC(=O)O [Compound 4]	8.1 ± 0.3 µM	–	–	–	–	–	–	–	–	–	–	–	–	–	–	44	–	–
Ac-KETAAAKFERQHMDS-NH2 [S-peptide, reference compound]	–	0.13 ± 0.02	–	–	–	–	–	no effect on catalysis	0.057 ± 0.002	0.097 ± 0.004	0.159 ± 0.008	0.226 ± 0.011	0.296 ± 0.029	0.362 ± 0.037	0.431 ± 0.050	–	–	did not compete
